ChEMBL document CHEMBL1154641 (Bioorg Med Chem Lett, 2009)

Molecular target: T1, Carbonic anhydrase 2 (Mycobacterium tuberculosis, UniProt P9WPJ9)
T1 sequence (P9WPJ9 whole entry): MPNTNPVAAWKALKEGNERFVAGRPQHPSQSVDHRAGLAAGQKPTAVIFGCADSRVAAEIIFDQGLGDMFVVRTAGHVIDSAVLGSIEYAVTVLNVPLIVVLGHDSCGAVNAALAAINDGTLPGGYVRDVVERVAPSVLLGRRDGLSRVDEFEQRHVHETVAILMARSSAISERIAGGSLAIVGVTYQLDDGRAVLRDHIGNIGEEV
Description: Inhibition of full length Mycobacterium tuberculosis H37Rv recombinant carbonic anhydrase 2 encoded by RV3588c by stopped flow CO2 hydration assay

| Compound | Ki |
| --- | --- |
| Nc1ccc(S(=O)(=O)NCCc2ccc(S(N)(=O)=O)cc2)cc1 | 2.29 µM |
| NCc1ccc(S(N)(=O)=O)cc1 [MAFENIDE] | 30.7 µM |
| Nc1ccc(S(N)(=O)=O)cc1I | 32.4 µM |
| NS(=O)(=O)c1ccc(S(=O)(=O)Nc2cccc3c(Cl)c[nH]c23)cc1 | 0.717 µM |
| NCCc1ccc(S(N)(=O)=O)cc1 | 29.1 µM |
| NS(=O)(=O)c1nnc(-c2ccccc2Cl)s1 | 45.2 µM |
| NS(=O)(=O)c1ccc(CO)cc1 | 38.3 µM |
| Cc1ccc(S(N)(=O)=O)cc1 [P-TOLUENESULFONAMIDE] | 38.9 µM |
| Nc1ccc(S(N)(=O)=O)cc1Br | 31.6 µM |
